# Test system: E. coli (ATCC 25922)
# Experiment: AATCC Test Method 100-2012 antibacterial activity of the treated textile, after 25 washes and 12 abrasion cycles, contact time 60 minutes
# Assay type: cell-based
# Details: for Performance Test-Log reduction of antimicrobial performance: pad process, 2 min
# Experimental: The antibacterial activity of the textile was tested in accordance with AATCC Test Method 100-2012. Prior to the test, the fabric was cut into coupons of 2×4 inches and washed separately 25 times, and exposed to 12 abrasion cycles, as per US EPA protocol 90072PA4 (described further below). The tests were made against E. coli (ATCC 25922). Contact time was 60 minutes, after inoculating with 10^8 CFU per coupon.
smiles,measurement,setting,value
"CCCCCCCCCCCCCCCCCC[N+](C)(C)CCC[Si](OC)(OC)OC [Organosilane, dimethyloctadecyl[3-(trimethoxysilyl)propyl] ammonium chloride]",Performance Test-Log reduction of antimicrobial performance,"single agent 5 gm/lit, curing 180° C.",0.93 Log
same,Performance Test-Log reduction of antimicrobial performance,"single agent 10 gm/lit, curing 120° C.",0.38 Log
same,Performance Test-Log reduction of antimicrobial performance,"single agent 10 gm/lit, curing 140° C.",0.53 Log
same,Performance Test-Log reduction of antimicrobial performance,"single agent 10 gm/lit, curing 150° C.",0.62 Log
same,Performance Test-Log reduction of antimicrobial performance,"single agent 10 gm/lit, curing 160° C.",0.98 Log
same,Performance Test-Log reduction of antimicrobial performance,"single agent 10 gm/lit, curing 180° C.",2.21 Log
same,Log reduction of antimicrobial performance,"pure cotton fabric, exhaust 80° C., 60 min, dosage 0.1% o.w.f",0.81 Log
same,Log reduction of antimicrobial performance,"pure cotton fabric, exhaust 80° C., 60 min, dosage 0.2% o.w.f",1.67 Log
same,Log reduction of antimicrobial performance,"pure cotton fabric, exhaust 80° C., 60 min, dosage 0.5% o.w.f",1.83 Log
same,Log reduction of antimicrobial performance,"pure cotton fabric, exhaust 80° C., 60 min, dosage 0.8% o.w.f",2.17 Log
same,Log reduction of antimicrobial performance,"pure cotton fabric, exhaust 80° C., 60 min, dosage 1.0% o.w.f",2.56 Log
same,Log reduction of antimicrobial performance,"pure cotton, exhaust 80° C., 1% o.w.f, 60 min, curing 180° C., curing dwell time 0.5 min",0.3 Log
same,Log reduction of antimicrobial performance,"pure cotton, exhaust 80° C., 1% o.w.f, 60 min, curing 180° C., curing dwell time 1.0 min",1.1 Log
same,Log reduction of antimicrobial performance,"pure cotton, exhaust 80° C., 1% o.w.f, 60 min, curing 180° C., curing dwell time 1.5 min",1.8 Log
same,Log reduction of antimicrobial performance,"pure cotton, exhaust 80° C., 1% o.w.f, 60 min, curing 180° C., curing dwell time 2.0 min",2.5 Log
same,Log reduction of antimicrobial performance,"pure cotton, exhaust 80° C., 1% o.w.f, 60 min, curing 180° C., curing dwell time 2.5 min",2.4 Log
same,Log reduction of antimicrobial performance,"pure cotton, exhaust 80° C., 1% o.w.f, 60 min, curing 180° C., curing dwell time 3.0 min",1.4 Log
same,Log reduction of antimicrobial performance,"pure polyester fabric, exhaust 80° C., 60 min, curing 180° C., curing dwell time 0.5 min",0.4 Log
same,Log reduction of antimicrobial performance,"pure polyester fabric, exhaust 80° C., 60 min, curing 180° C., curing dwell time 1.0 min",1.2 Log
same,Log reduction of antimicrobial performance,"pure polyester fabric, exhaust 80° C., 60 min, curing 180° C., curing dwell time 1.5 min",1.7 Log
same,Log reduction of antimicrobial performance,"pure polyester fabric, exhaust 80° C., 60 min, curing 180° C., curing dwell time 2.0 min",2.75 Log
same,Log reduction of antimicrobial performance,"pure polyester fabric, exhaust 80° C., 60 min, curing 180° C., curing dwell time 2.5 min",2.45 Log
same,Log reduction of antimicrobial performance,"pure polyester fabric, exhaust 80° C., 60 min, curing 180° C., curing dwell time 3.0 min",1.3 Log
same,Log reduction of antimicrobial performance,"pure polyester fabric, exhaust 80° C., 60 min, dosage 0.1% o.w.f",0.72 Log
same,Log reduction of antimicrobial performance,"pure polyester fabric, exhaust 80° C., 60 min, dosage 0.2% o.w.f",1.65 Log
same,Log reduction of antimicrobial performance,"pure polyester fabric, exhaust 80° C., 60 min, dosage 0.5% o.w.f",1.75 Log
same,Log reduction of antimicrobial performance,"pure polyester fabric, exhaust 80° C., 60 min, dosage 0.8% o.w.f",2.16 Log
same,Log reduction of antimicrobial performance,"pure polyester fabric, exhaust 80° C., 60 min, dosage 1.0% o.w.f",2.58 Log
same,Log reduction of antimicrobial performance,"solution dosage 0.10% o.w.f, exhaust temperature 40° C., process time 60 min",0 Log
same,Log reduction of antimicrobial performance,"solution dosage 0.10% o.w.f, exhaust temperature 60° C., process time 60 min",0 Log
same,Log reduction of antimicrobial performance,"solution dosage 0.10% o.w.f, exhaust temperature 65° C., process time 60 min",0 Log
same,Log reduction of antimicrobial performance,"solution dosage 0.10% o.w.f, exhaust temperature 70° C., process time 60 min",0 Log
same,Log reduction of antimicrobial performance,"solution dosage 0.10% o.w.f, exhaust temperature 75° C., process time 60 min",0.63 Log
same,Log reduction of antimicrobial performance,"solution dosage 0.10% o.w.f, exhaust temperature 80° C., process time 60 min",0.78 Log
same,Log reduction of antimicrobial performance,"solution dosage 0.10% o.w.f, exhaust temperature 85° C., process time 60 min",0.81 Log
same,Log reduction of antimicrobial performance,"solution dosage 0.10% o.w.f, exhaust temperature 90° C., process time 60 min",0.82 Log
same,Log reduction of antimicrobial performance,"solution dosage 0.10% o.w.f, exhaust temperature 95° C., process time 60 min",0.82 Log
same,Log reduction of antimicrobial performance,"solution dosage 0.20% o.w.f, exhaust temperature 40° C., process time 60 min",0 Log
same,Log reduction of antimicrobial performance,"solution dosage 0.20% o.w.f, exhaust temperature 60° C., process time 60 min",0.09 Log
same,Log reduction of antimicrobial performance,"solution dosage 0.20% o.w.f, exhaust temperature 65° C., process time 60 min",0.10 Log
same,Log reduction of antimicrobial performance,"solution dosage 0.20% o.w.f, exhaust temperature 70° C., process time 60 min",0.17 Log
same,Log reduction of antimicrobial performance,"solution dosage 0.20% o.w.f, exhaust temperature 75° C., process time 60 min",0.92 Log
same,Log reduction of antimicrobial performance,"solution dosage 0.20% o.w.f, exhaust temperature 80° C., process time 60 min",1.52 Log
same,Log reduction of antimicrobial performance,"solution dosage 0.20% o.w.f, exhaust temperature 85° C., process time 60 min",1.65 Log
same,Log reduction of antimicrobial performance,"solution dosage 0.20% o.w.f, exhaust temperature 90° C., process time 60 min",1.65 Log
same,Log reduction of antimicrobial performance,"solution dosage 0.20% o.w.f, exhaust temperature 95° C., process time 60 min",1.65 Log
same,Log reduction of antimicrobial performance,"solution dosage 0.50% o.w.f, exhaust temperature 40° C., process time 60 min",0 Log
same,Log reduction of antimicrobial performance,"solution dosage 0.50% o.w.f, exhaust temperature 60° C., process time 60 min",0.17 Log
same,Log reduction of antimicrobial performance,"solution dosage 0.50% o.w.f, exhaust temperature 65° C., process time 60 min",0.18 Log
same,Log reduction of antimicrobial performance,"solution dosage 0.50% o.w.f, exhaust temperature 70° C., process time 60 min",0.19 Log
same,Log reduction of antimicrobial performance,"solution dosage 0.50% o.w.f, exhaust temperature 75° C., process time 60 min",1.23 Log
same,Log reduction of antimicrobial performance,"solution dosage 0.50% o.w.f, exhaust temperature 80° C., process time 60 min",1.78 Log
same,Log reduction of antimicrobial performance,"solution dosage 0.50% o.w.f, exhaust temperature 85° C., process time 60 min",1.82 Log
same,Log reduction of antimicrobial performance,"solution dosage 0.50% o.w.f, exhaust temperature 90° C., process time 60 min",1.83 Log
same,Log reduction of antimicrobial performance,"solution dosage 0.50% o.w.f, exhaust temperature 95° C., process time 60 min",1.83 Log
same,Log reduction of antimicrobial performance,"solution dosage 0.80% o.w.f, exhaust temperature 40° C., process time 60 min",0 Log
same,Log reduction of antimicrobial performance,"solution dosage 0.80% o.w.f, exhaust temperature 60° C., process time 60 min",0.23 Log
same,Log reduction of antimicrobial performance,"solution dosage 0.80% o.w.f, exhaust temperature 65° C., process time 60 min",0.24 Log
same,Log reduction of antimicrobial performance,"solution dosage 0.80% o.w.f, exhaust temperature 70° C., process time 60 min",0.36 Log
same,Log reduction of antimicrobial performance,"solution dosage 0.80% o.w.f, exhaust temperature 75° C., process time 60 min",1.32 Log
same,Log reduction of antimicrobial performance,"solution dosage 0.80% o.w.f, exhaust temperature 80° C., process time 60 min",2.13 Log
same,Log reduction of antimicrobial performance,"solution dosage 0.80% o.w.f, exhaust temperature 85° C., process time 60 min",2.23 Log
same,Log reduction of antimicrobial performance,"solution dosage 0.80% o.w.f, exhaust temperature 90° C., process time 60 min",2.34 Log
same,Log reduction of antimicrobial performance,"solution dosage 0.80% o.w.f, exhaust temperature 95° C., process time 60 min",2.34 Log
same,Log reduction of antimicrobial performance,"solution dosage 1.00% o.w.f, exhaust temperature 40° C., process time 60 min",0 Log
same,Log reduction of antimicrobial performance,"solution dosage 1.00% o.w.f, exhaust temperature 60° C., process time 60 min",0.28 Log
same,Log reduction of antimicrobial performance,"solution dosage 1.00% o.w.f, exhaust temperature 65° C., process time 60 min",0.29 Log
same,Log reduction of antimicrobial performance,"solution dosage 1.00% o.w.f, exhaust temperature 70° C., process time 60 min",0.42 Log
same,Log reduction of antimicrobial performance,"solution dosage 1.00% o.w.f, exhaust temperature 75° C., process time 60 min",1.45 Log
same,Log reduction of antimicrobial performance,"solution dosage 1.00% o.w.f, exhaust temperature 80° C., process time 60 min",2.56 Log
same,Log reduction of antimicrobial performance,"solution dosage 1.00% o.w.f, exhaust temperature 85° C., process time 60 min",2.69 Log
same,Log reduction of antimicrobial performance,"solution dosage 1.00% o.w.f, exhaust temperature 90° C., process time 60 min",2.71 Log
same,Log reduction of antimicrobial performance,"solution dosage 1.00% o.w.f, exhaust temperature 95° C., process time 60 min",2.71 Log
